# Reference: US20020076693A1, “Novel cell surface receptor for HIV retroviruses, therapeutic and diagnostic uses” (priority 1997, published 2002)
# Legend:
# [1] = test system: V3 loop-BPs (nucleolin, PHAP II, PHAP I); assay: BIAcore biosensor binding to immobilized V3 loop-BPs; set-up: species or system human
# [2] = test system: HIV-1 pseudotyped Mo-MLV virus; assay: Infection of CEM cells by HIV-1 pseudotyped Mo-MLV virus (p24); settings: p24 at 48 hours p.i., AZT 5 μM, TASP 5 μM
# Protocol: CEM cells (2×10^5) were infected with the HIV-1 pseudoryped Mo-MLV virus (Experimental procedure) at 95 ng of p24/ml, in the absence (histogram Control) or presence of different additions (as indicated). The infection was monitored by the production of p24, which was measured in the culture supernatant at 48 hours p.i. The mean±SD of duplicate samples is given. Treatment of cells with the different antibodies was as in FIG. 6 +L. For a control of infection, cells were pretreated with 5 μM AZT before infection.
# Hela cells were cotransfected by electroporation with plasmids pNL4-3 defective in env gene (Borman et al., 1995) and pE4070A expressing amphotrope envelope glycoproteins of Mo-MLV (Battini et al., 1996). Electroporation (Schwartz et al., 1996) was performed at 200 V, 960 μF, using a 4 mm wide cuvettes in a BIO-Rad Gene Pulser. The pseudotyped virus was recovered from the culture supernatant after 48 hours of culturing.
# HIV-1 Bal = assay: HIV entry into HeLa P4-C5 cells (β-galactosidase), HIV-1 Ba-L; type: cell-based; settings: HeLa P4-C5, HIV-1 Bal; read-out: IC50, inhibition of HIV entry
# [3] = test system: cell surface component (CEM and C8166 clones); assay: Competition for cell-surface binding of 8-MAP; set-up: species or system human; settings: FACS competition
# CD4^+ CEM cells = assay: Binding of 125I-labeled gp120 to CEM cells; set-up: species or system human
# Protocol: A. The binding of ^125I-labeled gp120 to CEM cells. […] The cells were then washed as described in “Materials and Methods” and processed for analysis of the bound gp120.
# Recombinant gp120 (Neosystem, Strasbourg, France) was radioiodinated with the Bolton-Hunter reagent (New England Nuclear-Du Pont, Boston, Mass.) according to the technique described by the manufacturer. To study the binding of gp120 to the CD4 receptor, CEM cells (5×10^6) which express high levels of CD4 were incubated in the culture medium with ^125I-labeled gp120 (50 ng; 10 Ci/mg) at 37° C. for 1 hour. Cells were then washed twice in PBS (5 ml) and cytoplasmic extracts were prepared by disruption of cell pellets in buffer E ([…]). Aliquots ([…]; corresponding to material from 10^6 cells) were diluted in two-fold concentrated electrophoresis buffer and were analyzed by SDS/PAGE. […] The ^125I-labeled gp120 band was also quantitated in a Phosphorimager (Molecular Dynamics, Sunnyvale, Calif.).
# P95/nucleolin = P95/nucleolin (Homo sapiens, UniProt P19338); assay: Saturation of binding sites of P95/nucleolin
# [4] = Stability of TASP constructs in serum (residual activity to bind the cell-surface ligand); type: in vitro ADME
# HIV-1 Lai [5] = assay: Binding of HIV particles to CEM cells (cell-associated p24); type: cell-based; settings: 37° C., 1 hour; TASP 10 mM, mAb OKT4A 10 μg/ml, mAb anti-CD4 5 μg/ml, rabbit antibodies 100 μg/ml
# Protocol: B. The binding of HIV particles to CEM cells. […] The binding of HIV particles was estimated as described in “Materials and Methods”. The ordinate gives the concentration of p24 associated with the cells, i.e. particles bound on the cell surface as well as particles (or cores) entered into cells. Each value represents the mean of two identical samples. Similar results were obtained in two other indepenent experiments.
# CEM cells (5×10^6) were first preincubated (15 min, 37° C.) in the absence (Control) or presence of mAb anti-CD4 CB-T4 (5 μg/ml; histogram a-CD4), rabbit peptide purified antibodies against nucleolin, PHAP II and PHAP I at 100 μg/ml, or combination of antibodies as shown (at the same concentrations as when used alone) before the addition of HIV-1 Lai (material corresponding to 5 ng of p24), and further incubation at 37° C. for 1 hr. The cells were then washed and cell extracts were prepared to estimate the amount of HIV binding to cells (HIV bound on the surface+HIV entered into cells). The amount of virus particles was estimated by measuring the concentration of p24. The experimental conditions were as described previously (Krust et al., 1993; Callebaut et al., 1997b).
# After incubation at 37° C. for 1 hour with gentle shaking, cells were diluted 10 fold in the culture medium and pelleted by centrifugation. […]
# HIV-1 Ada-M = HIV-1 Ada-M entry into HeLa P4-C5 cells (β-galactosidase); type: cell-based; settings: HeLa P4-C5, β-galactosidase at 48 hours
# Protocol: HeLa cells (P4-C5) were treated (incubation at 37° C., 30 min) with AZT (5 μM), (α-CD4 mAb CBT4 (5 μg/ml) before infection with the different HIV isolates in order to obtain the background β-galactosidase activity compared to untreated cells (Control). During the same time, the different HIV isolates were treated (incubation at room temperature, 15 min) with 1, 5, and 10 μg/ml of heparin before addition to untreated cells. The b-galactosidase activity was assayed at 48 hours post-infection as a measure of HIV entry (3 +L7).
# HIV-1 Lai [6] = assay: Inhibition of HIV-1 Lai infection of CEM cells (p24 production); type: cell-based
# Protocol: Infection of CEM cells with the HIV-1 Lai isolate was carried out as described previously (Callebaut et al., 1996). For the assay of the inhibitory effect of rabbit antisera or purified antibodies, CEM cells were first incubated (15-30 min, at room temperature) in the presence of different concentrations of each antibody preparation before infection using 0.2 synchronous dose of HIV-1 Lai as described before (Laurent-Crawford and Hovanessian, 1993). HIV production was estimated at different days post-infection (p.i.) by monitoring the HIV-1 major core protein p24 in the culture supernatant (Callebaut et al., 1996). The concentration of p24 was measured by p24 Core Profile ELISA (Du Pont). For a single cycle of HIV, AZT ([…]) was added at 8 hr post-infection to inhibit multiple cycles of virus infection; HIV production was monitored at 4 days post-infection (Laurent-Crawford and Hovanessian, 1993).
# cell-surface P95 = cell-surface P95 (Homo sapiens, UniProt P19338); assay: Recovery of cell-surface P95 complexed to biotin-labeled 5[Kψ(CH2N)PR]-TASP, competition by unlabeled constructs; settings: 50 μM unlabeled, 5 μM biotin-labeled 5[Kψ(CH2N)PR]-TASP
# Protocol: Cells were then washed extensively before preparation of cell extracts. The complexes formed between the biotin-labeled TASP constructs and any cell-surface protein were then recovered by purification using avidin-agarose (“Materials and Methods”). […] Lane 1 “Extract” represents the ligand blot analysis of crude CEM cell extracts; material corresponding to 10^6 cells.
# Cells were then washed in FACS buffer (2×15 ml) and nucleus-free cell extracts were prepared using buffer E (150 ml). Such extracts were first diluted in PBS containing 1 mM EDTA (600 μl) before the addition of 100 μl avidin-agarose (ImmunoPure Immobilized Avidin from Pierce Chemical Company, U.S.A.) to capture the biotin-labeled TASP complexed to its cell surface ligand(s). These suspensions were incubated at 4° C. for 2 hr, and the avidin-agarose bound proteins were washed batchwise with PBS containing 1 mM EDTA (5×5 ml). Finally, the avidin-agarose pellet was resuspended in 100 ml of 2-fold concentrated electrophoresis sample buffer and heated at 95° C. for 5 min.
# [7] = binding protein(s) V3 loop-BPs, BIAcore
# Sequence of P95/nucleolin (P19338 whole entry): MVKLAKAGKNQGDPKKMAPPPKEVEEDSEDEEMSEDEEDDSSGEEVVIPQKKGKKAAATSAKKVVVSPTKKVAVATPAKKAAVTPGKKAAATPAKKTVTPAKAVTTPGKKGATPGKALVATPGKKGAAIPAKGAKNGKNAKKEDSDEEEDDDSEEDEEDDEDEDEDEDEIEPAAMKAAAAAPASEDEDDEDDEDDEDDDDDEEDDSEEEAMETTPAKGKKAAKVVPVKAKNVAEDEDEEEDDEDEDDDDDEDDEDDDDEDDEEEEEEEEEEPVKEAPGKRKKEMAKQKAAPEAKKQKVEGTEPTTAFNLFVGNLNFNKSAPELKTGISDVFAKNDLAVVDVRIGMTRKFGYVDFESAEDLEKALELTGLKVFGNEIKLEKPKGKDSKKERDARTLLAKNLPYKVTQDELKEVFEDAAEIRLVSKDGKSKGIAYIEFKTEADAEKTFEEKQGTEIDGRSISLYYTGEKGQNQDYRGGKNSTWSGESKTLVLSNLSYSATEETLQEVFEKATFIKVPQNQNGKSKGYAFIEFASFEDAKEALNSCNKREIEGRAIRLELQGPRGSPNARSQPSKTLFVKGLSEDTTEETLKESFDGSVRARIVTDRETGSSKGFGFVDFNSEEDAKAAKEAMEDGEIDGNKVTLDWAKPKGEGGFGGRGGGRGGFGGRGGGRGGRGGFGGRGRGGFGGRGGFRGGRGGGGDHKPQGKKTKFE
# Sequence of cell-surface P95 (P19338 whole entry): as above
substance,measurement,setting,value
5[Kψ(CH2N)PR]-TASP,Ka (equilibrium affinity constant),[1]; [7],9.61e+09 M⁻¹
same,ka (association rate constant),[1]; [7],37.50 × 10^5 M^−1S^−1
same,kd (dissociation rate constant),[1]; [7],0.39 × 10^−3 S^−1
same,equilibrium affinity constant Ka,[1]; binding to the V3 loop-BPs,9.6e+09 M⁻¹
same,effect on infection by HIV-1 pseudotyped Mo-MLV virus,[2],no significant effect
same,IC50,HIV-1 Bal,300 nM
same,concentration sufficient to block the binding of 10 μM of 8-MAP,[3],1 µM
same,binding of 125I-labeled gp120 to CEM cells,CD4^+ CEM cells; 20 mM of TASP,not affected
same,binding of 125I-labeled gp120 to CEM cells,"CD4^+ CEM cells; higher concentrations of TASP (40, 80 μM)",slight inhibition
same,concentration for 100% saturation of the binding sites,P95/nucleolin,2 µM
same,activity retained after 18 hours of incubation in serum,[4],more than 80%
same,inactivated after 18 hours of incubation in sera,[4],less than 20%
same,inhibition of binding of HIV particles to CEM cells,HIV-1 Lai [5],78%
same,effect on HIV-1 Ada-M entry,HIV-1 Ada-M,enhances
same,inhibition of virus production,HIV-1 Lai [6]; 5 mM added one hour before or together with the virus,more than 90%
same,inhibitory effect when added at 8 hours p.i.,HIV-1 Lai [6]; CEM cells,almost no effect
same,HIV entry monitored by intracellular concentration of p24,"HIV-1 Lai [6]; CEM cells, 1 hour incubation with virus, 5-10 μM",inhibited almost completely
same,combined action with AZT against an HIV infection,"HIV-1 Lai [6]; CEM cells, HIV-1 Lai, p24 at 4 days p.i.",synergistic action
same,IC50,"HIV-1 Lai [6]; CEM cells, construct added 15 min before HIV-1, p24 at 4 days p.i., read-out: Inhibition of HIV infection (IC50), 50% dose",500 nM
same,inhibition of HIV-1 Lai infection in CEM cells,"HIV-1 Lai [6]; TASP 5 μM, p24 at 5 days p.i.",more than 95%
same,inhibition of virus infection,"HIV-1 Lai [6]; TASP 10 μM, mAb OKT4A 10 mg/ml",complete inhibition
same,higher activity compared to non-reduced counterpart 5[KPR]-TASP,HIV-1 Lai [6]; both inhibition of HIV infection and affinity to bind the cell-surface ligand,≥ 10 fold
same,isolation of cell-surface P95 abolished by excess unlabeled construct,cell-surface P95,completely abolished
